# According to US10857105B2, “Compounds and compositions for intracellular delivery of therapeutic agents” (ModernaTX, Inc., priority 2017, dated 2020):
# How the values were obtained:
# modified luciferase = assay: Luciferase expression in liver, lung, spleen and femur 6 hours after intravenous administration to mice; assay type: in vivo; details: 6 hours after intravenous 0.5 mpk, mice
# How it was run: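 Nanoparticle formulations of the modified luciferase were given intravenously to mice (n=3) at 0.5 mpk. Bioluminescence was measured after 6 hours as total light flux. Standard MC3 formulation and PBS run as controls.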
# IL-6, IP-10 = assay: Cytokine induction (IL-6, IP-10) in mice 6 hours after intravenous administration; assay type: in vivo; parameters: unit not given here; details: intravenous 0.5 mpk
# How it was run: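 Mice dosed intravenously with nanoparticle compositions at 0.5 mpk; serum cytokine concentrations (IL-6, IP-10) measured at 6 hours. MC3 formulation and PBS controls run alongside.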
# hEPO mRNA [1] = assay: hEPO expression and cytokine induction after intravenous administration to mice; assay type: in vivo; details: mice
# Description: FIG. 17 is a graph showing the hEPO mRNA expression in CD1-mice measured 3 h (left block), 6 h (middle block) and 24 h (right block) after intravenous administration of various nanoparticle compositions. Numbers 1-13 refer to compositions containing an mRNA expressing hEPO and the following: 1: Compound 147, 2: Compound 184, 3: Compound 232; 4: Compound 189; 5: Compound 200; 6: Compound 233; 7: Compound 234; 8: Compound 235; 9: Compound 237; 10: Compound 239; 11: Compound 243; 12: MC3; 13: PBS. […]
# Sample formulations of nanoparticle compositions including different lipids are generally first evaluated according to Luc expression in vivo. The activity of several such compositions was further evaluated using an mRNA encoding hEPO. Nanoparticle compositions including Compounds 6, 18, 25, 30, 108-112, 60, and 122, or MC3 were prepared according to Example 2.
# (§1) The expression of hEPO and cytokine induction in mice intravenously administered a nanoparticle composition at a dose of 0.5 mpk were measured at 3, 6, and 24 hours. […] The expression of hEPO in mice intramuscularly administered a nanoparticle composition from Table 1B at a dose of 0.01 mpk were measured at 3, 6, and 24 hours. […] (see
# Table 12 compares the nanoparticle compositions including compounds according to Formula (I), (IA), (IB), (II), (IIa), (IIb), (IIc), (IId), (IIe), (IIf), (IIg), or (III) to the compositions including MC3 on the basis of expression and flux levels. […] Thus, these lipids may be useful in nanoparticle composition therapeutics.
# CD-1 mice = assay: Luciferase expression after intravenous delivery of luciferase mRNA LNPs (bioluminescent imaging); assay type: in vivo; details: intravenous 0.5 mg/kg mRNA dose
# Description: Whole body and ex vivo organ bioluminescent imaging of mice: CD-1 mice were injected 15 minutes prior to the imaging timepoint intraperitoneally (IP) with 200 μL Xenolight D-luciferin K+ salt, diluted in PBS just prior to use to a concentration of 15 mg/mL. Ex vivo imaging of organs was completed, within 25 minutes of luciferin administration. All images were quantified by region of interest for total flux.
# […] […] (See Semple, S.C. et al., Nature Biotech. 2010. 28, 172-176, Jayaraman, M., et al. Angew. Chem. Int. Ed. 2012, 51, 8529-8533, the entire contents of each of which are incorporated by reference herein in their entireties). To evaluate the efficiency of the new amino lipids, LNPs using the novel compounds were tested in vivo in mice using luciferase mRNA as a reporter. An MC3 LNP was included as a control in each experiment, enabling the comparison of LNPs from experiment to experiment. Measured luciferase activity also enabled the determination of protein bio-distribution.
# [2] = Chemical stability of lipids in ethanol at room temperature and 37° C. (lipid purity); assay type: physicochemical
# Description: Ester linkages were previously reported to trigger metabolism by esterases in vivo. (See Fukami, T. et al. Drug Metab. Pharmacokinet. 2012, 27, 466-477, the content of which is incorporated by reference herein in its entirety). […] (See Maier M. A., Mol. Ther. 2013, 21, 1570-1578, the content of which is incorporated herein in its entirety) First, the chemical stability of the lipids was evaluated by measuring ethanol stability at room temperature and 37° C. (Table 39). […] LNPs formed with compound 138 were larger, with a surface pKa>7. […] Removal of one ester function (compound 136) afforded LNPs with improved physiochemical characteristics and lower LNP surface pKa.
# [3] = Particle size and polydispersity index of nanoparticle compositions (Zetasizer Nano ZS); assay type: physicochemical
# How it was run: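 Size and PDI measured by Zetasizer Nano ZS in 1×PBS (zeta potential in 15 mM PBS). Lipid nanoparticles contained test ionizable lipid:DSPC:cholesterol:PEG-DMG at 50:10:38.5:1.5 mol % with N1-methyl-pseudouridine mRNA encoding luciferase or hEPO.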
# [4] = Encapsulation efficiency of RNA in nanoparticle compositions (RIBOGREEN assay); assay type: physicochemical
# How it was run: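 Lipid nanoparticles (ionisable lipid:DSPC:cholesterol:PEG-DMG 50:10:38.5:1.5 mol %) carrying N1-methylpseudouridine luciferase or hEPO mRNA diluted to about 5 μg/mL in TE, pH 7.5, with or without 2% Triton X-100, 15 min at 37° C. RiboGreen fluorescence (ex ~480, em ~520 nm) blank-subtracted; free RNA = intact/disrupted signal.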
# luciferase (Luc) mRNA [5] = assay: Luciferase expression (whole body bioluminescence) after intravenous administration to mice; assay type: in vivo; details: intravenous, luciferase; for Novel lipid/MC3 ratio, i.v.: Table 3G, 6 hr. timepoint, relative to MC3; for Novel lipid/MC3 expression ratio, i.v.: 6 hr. time point, relative to MC3 formulation
# How it was run: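 Mice (n=6) received lipid nanoparticle formulations carrying luciferase mRNA intravenously at 0.5 mg/kg. Whole-body bioluminescence was measured at 3, 6 and 24 h. Total flux was taken as area under the curve and expressed relative to a standard MC3 formulation.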
# [6] = test system: modified luciferase (Luc) mRNA and H10 mRNA; assay: Expression after intramuscular administration of formulations including Luc mRNA and H10 mRNA; assay type: in vivo
# Description: Sample formulations including both modified luciferase (Luc) mRNA and H10 mRNA were prepared and administered intramuscularly and the resulting expression and immunogenicity were evaluated simultaneously. Formulations including compounds according to Formula (I), (IA), (IB), (II), (IIa), (IIb), (IIc), (IId), (IIe), (IIf), (IIg), or (III) were prepared and administered at doses of 0.001 and 0.01 mpk (e.g., doses of 0.0005 mpk of a formulation including Luc mRNA and a formulation including H10 mRNA or doses of 0.005 mpk of a formulation including Luc mRNA and a formulation including H10 mRNA).
# The fluxes measured upon intravenous and intramuscular administration are compared in Table 6. Fluxes are presented as fold increase over that measured for MC3 formulations.
# luciferase (Luc) mRNA [7] = assay: Luciferase expression after intramuscular administration to mice; assay type: in vivo; details: intramuscular; for Total flux 6 hours after intramuscular administration, 0.01 mpk Dose: Luc mRNA
# How it was run: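 CD-1 mice received lipid nanoparticle formulations of modified luciferase mRNA intramuscularly at 0.01 mpk. Bioluminescence total flux was measured, including at 6 h, and AUC was expressed relative to MC3 formulations. Immunogenicity was assessed in parallel.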
# hEPO mRNA [8] = assay: hEPO expression after intramuscular administration to mice; assay type: in vivo; details: intramuscular, hEPO; for Novel lipid/MC3 ratio, i.m. hEPO: Table 3G, 6 hr. timepoint, relative to MC3
# Description: The numbers 1-11 in this figure correspond to MC3, Compounds 18, 25, 30, 108-112, 60, and 122 respectively.
# as §1
# [9] = Table 1A, lipid:DSPC:cholesterol:PEG-DMG 50:10:38.5:1.5 mol %
# [10] = Table 1C, compositions for subcutaneous administration
# [11] = Table 1B, formulated with hEPO mRNA
Structure (SMILES),"Total Flux, Femur (modified luciferase)","Total Flux, Liver (modified luciferase)","Total Flux, Lung (modified luciferase)","Total Flux, Spleen (modified luciferase)","Cytokine induction, IL-6 (IL-6, IP-10)","Cytokine induction, IP-10 (IL-6, IP-10)",luciferase activity/expression compared to MC3 LNP control (words) (CD-1 mice),"Lipid Purity, t = 96 h, 25° C. [2]","Lipid Purity, t = 96 h, 37° C. [2]","Lipid Purity, t = 0 [2]","Size [3, 9]","Size [3, 10]","EE [4, 9]","Novel lipid/MC3 ratio, i.v. (luciferase (Luc) mRNA [5])","Novel lipid/MC3 expression ratio, i.v. (luciferase (Luc) mRNA [5])","Size [3, 11]","EE [4, 11]","Total flux 6 hours after intramuscular administration, 0.01 mpk Dose (luciferase (Luc) mRNA [7])","Novel lipid/MC3 ratio, i.m. hEPO (hEPO mRNA [8])",also measured
"CCCCC/C=C\C/C=C\CCCCCCCCN(CCO)CCCCCCCC(=O)OC(CCCCCCCC)CCCCCCCC [Compound 6, Heptadecan-9-yl 8-((2-hydroxyethyl)((9Z,12Z)-octadeca-9,12-dien-1-yl)amino)octanoate]",2.15E+06,1.09E+09,4.30E+06,3.03E+07,136.18,316.01,Equivalent expression to MC3 LNPs,93.21%,94.29%,93.80%,,,,,,,,,,"hEPO expression, 3 h (hEPO mRNA [1]; intravenous 0.5 mpk, 3 h): 2.31e+06 pg/mL; Cytokine expression, IL-6 (6 h) (hEPO mRNA [1]; intravenous 0.5 mpk, 6 h): 10.15 pg/mL; Cytokine expression, IP-10 (6 h) (hEPO mRNA [1]; intravenous 0.5 mpk, 6 h): 116.66 pg/mL; hEPO expression, 6 h (hEPO mRNA [1]; intravenous 0.5 mpk, 6 h): 3.17e+06 pg/mL; hEPO expression, 24 h (hEPO mRNA [1]; intravenous 0.5 mpk, 24 h): 1.11e+06 pg/mL; hEPO concentrations compared with MC3 formulations (hEPO mRNA [1]; intravenous, 0.5 mpk, 3, 6 and 24 hours): higher hEPO concentrations than MC3 formulations at each time point"
"CCCCCCCCCOC(=O)CCCCCCCN(CCCCO)CCCCCCCC(=O)OC(CCCCCCCC)CCCCCCCC [Compound 20, Heptadecan-9-yl 8-((4-hydroxybutyl)(8-(nonyloxy)-8-oxooctyl)amino) octanoate]",1.31E+07,1.84E+09,2.66E+07,1.43E+08,126.83,2468.24,,,,,86.7 nm,86.7 nm,96.72%,0.80,0.80,,,,,"Expression upon intramuscular administration ([6]; doses of 0.001 and 0.01 mpk, 6 hours): highest expression at both dose levels; Fold increase in Luc expression over MC3 upon intramuscular administration ([6]; intramuscular): highest fold increase"
"CCCCCCCCCOC(=O)CCCCCCCN(CCCCCCCC(=O)OC(CCCCCCCC)CCCCCCCC)CCCNC(=O)N(C)C [Compound 110, Heptadecan-9-yl 8-((3-(3,3-dimethylureido)propyl)(8-(nonyloxy)-8-oxooctyl)amino)octanoate]",,2.30E+08,5.76E+06,1.41E+08,,,,,,,91.5 nm,91.5 nm,,0.19,0.19,73.3 nm,92.39%,1.21E+08 p/s,1.2,
"CCCCCCCCCOC(=O)CCCCCCCN(CCCCCCCC(=O)OC(CCCCCCCC)CCCCCCCC)CCCNC(=O)NC [Compound 112, Heptadecan-9-yl 8-((3-(3-methylureido)propyl)(8-(nonyloxy)-8-oxooctyl)amino)octanoate]",,1.48E+08,1.83E+06,2.75E+07,,,,,,,83.7 nm,83.7 nm,,0.08,0.08,60.6 nm,96.40%,9.47E+07 p/s,1.6,
"CCCCCCCCCOC(=O)CCCCCCCN(CCCCCCCC(=O)OC(CCCCCCCC)CCCCCCCC)CCCN/C(=N/C#N)N(C)C [Compound 168, Heptadecan-9-yl (Z)-8-((3-(2-cyano-3,3-dimethylguanidino)propyl)(8-(nonyloxy)-8-oxooctyl)amino)octanoate]",,,,,,,,,,,102.3 nm,,91.4%,,0.11,,,,,"Size ([3]; Table 1D, compositions for subcutaneous administration, # formulated with hEPO mRNA): 87.4 nm; Size ([3]; Table 1E, compositions for subcutaneous administration): 85.0 nm; Novel lipid/MC3 expression ratio, i.m. Luc (luciferase (Luc) mRNA [7]; luciferase, 6 hr. time point, relative to MC3 formulation): 16.0; Novel lipid/MC3 expression ratio, i.m. hEPO (hEPO mRNA [8]; 6 hr. time point, relative to MC3 formulation): 6.3"
"CCCCCCCCC(CCCCCCCC)OC(=O)CCCCCCCN(CCO)CCCCCCCC(=O)OC(CCCCCCCC)CCCCCCCC [compound 29, Di(heptadecan-9-yl) 8,8′-((2-hydroxyethyl)azanediyl)dioctanoate]",9.56E+05,5.20E+08,9.83E+05,5.99E+06,69.54,1362.81,lower luciferase activity,97.67%,98.10%,97.017%,,,96.99%,,,,,,,
